According to ChEMBL document CHEMBL3779783, “Short cationic lipopeptides as effective antibacterial agents: Design, physicochemical properties and biological evaluation” (Bioorg Med Chem, 2016):
Converted amounts (≈) assume the structure as drawn. The source made the active and inactive calls. The calls are words filed in the database; no cut-off is given here. Non-standard residues stand in square brackets, D forms with d. Residues, ends and D or L forms follow the SMILES beside them. Groups on a side chain read outwards from the residue. ξ: configuration not given here. ξGly(decyl) = CCCCCCCCCCC(N)C(=O)O

Legend:
Staphylococcus aureus [1] = test: Antimicrobial activity against methicillin-susceptible Staphylococcus aureus ATCC 25923 after 20 hrs by microdilution assay; type: functional; settings: ATCC 25923, 20 h
Staphylococcus aureus [2] = test: Antimicrobial activity against glycopeptide-intermediate Staphylococcus aureus NRS17 after 20 hrs by microdilution assay; type: functional; settings: NRS17, 20 h
Enterococcus faecalis = test: Antimicrobial activity against clinical isolates of high level vancomycin-resistant Enterococcus faecalis after 20 hrs by microdilution assay; type: functional
Staphylococcus aureus [3] = test: Antimicrobial activity against clinical isolates of methicillin-resistant Staphylococcus aureus after 20 hrs by microdilution assay; type: functional
Staphylococcus aureus [4] = test: Antimicrobial activity against vancomycin-resistant Staphylococcus aureus NARSA VRS4 after 20 hrs by microdilution assay; type: functional; settings: NARSA VRS4, 20 h
Staphylococcus aureus [5] = test: Antimicrobial activity against clinical isolates of multi-resistant/methicillin-resistant Staphylococcus aureus after 20 hrs by microdilution assay; type: functional
Staphylococcus aureus [6] = test: Antimicrobial activity against glycopeptide-intermediate Staphylococcus aureus NRS1 after 20 hrs by microdilution assay; type: functional; settings: NRS1, 20 h
Enterococcus faecium = test: Antimicrobial activity against multidrug resistant and high level vancomycin resistant Enterococcus faecium ATCC 51559 after 20 hrs by microdilution assay; type: functional; settings: ATCC 51559, 20 h
Staphylococcus aureus [7] = test: Antimicrobial activity against methicillin-resistant Staphylococcus aureus ATCC 43300 after 20 hrs by microdilution assay; type: functional; settings: ATCC 43300, 20 h
Streptococcus pneumoniae = test: Antimicrobial activity against multidrug resistant Streptococcus pneumoniae ATCC 700677 after 20 hrs by microdilution assay; type: functional; settings: ATCC 700677, 20 h
Staphylococcus aureus [8] = test: Antimicrobial activity against methicillin-susceptible Staphylococcus aureus ATCC 25923 assessed as blister appearance on cell surface at 16 times MIC after 3 hrs by transmission electron microscopic analysis; type: functional, organism-based
Staphylococcus aureus [9] = test: Antimicrobial activity against vancomycin-resistant Staphylococcus aureus NARSA VRS10 after 20 hrs by microdilution assay; type: functional; settings: NARSA VRS10, 20 h
Staphylococcus aureus [10] = test: Antimicrobial activity against vancomycin-resistant Staphylococcus aureus NARSA VRS1 after 20 hrs by microdilution assay; type: functional; settings: NARSA VRS1, 20 h
Staphylococcus aureus [11] = test: Antimicrobial activity against methicillin-susceptible Staphylococcus aureus ATCC 25923 assessed as surface blebs at 16 times MIC after 3 hrs by transmission electron microscopic analysis; type: functional, organism-based
Escherichia coli = test: Antimicrobial activity against Escherichia coli ATCC 25922 after 20 hrs by microdilution assay; type: functional; settings: ATCC 25922, 20 h
[12] = Cytotoxicity against human HepG2 cells after 24 hrs by MTT assay; type: cell-based
Pseudomonas aeruginosa = test: Antimicrobial activity against Pseudomonas aeruginosa ATCC 27853 after 20 hrs by microdilution assay; type: functional; settings: ATCC 27853, 20 h
Klebsiella pneumoniae [13] = test: Antimicrobial activity against multidrug resistant Klebsiella pneumoniae ATCC 700603 after 20 hrs by microdilution assay; type: functional; settings: Klebsiella pneumoniae, 700603, 20 h
Klebsiella pneumoniae [14] = test: Antimicrobial activity against NDM-1 positive Klebsiella pneumoniae BAA-2146 after 20 hrs by microdilution assay; type: functional; settings: ATCC BAA-2146, 20 h
Klebsiella pneumoniae [15] = test: Antimicrobial activity against Klebsiella pneumoniae ATCC 13883 after 20 hrs by microdilution assay; type: functional; settings: ATCC 13883, 20 h
[16] = Cytotoxicity against HEK293 cells after 24 hrs by MTT assay; type: cell-based; settings: human
Acinetobacter baumannii = test: Antimicrobial activity against Acinetobacter baumannii […] after 20 hrs by microdilution assay; type: functional

In the case of `CN[C@@H](CC(C)C)C(=O)N[C@H]1C(=O)N[C@@H](CC(N)=O)C(=O)N[C@H]2C(=O)N[C@H]3C(=O)N[C@H](C(=O)N[C@@H](C(=O)O)c4cc(O)cc(O)c4-c4cc3ccc4O)[C@H](O)c3ccc(c(Cl)c3)Oc3cc2cc(c3O[C@H]2O[C@@H](CO)[C@H](O)[C@@H](O)[C@@H]2O[C@@H]2C[C@@](C)(N)[C@@H](O)[C@@H](C)O2)Oc2ccc(cc2Cl)[C@H]1O`, the MIC (Staphylococcus aureus [1]) is reported as 0.7 µM (≈ 1.01 µg/mL), the MIC (Staphylococcus aureus [2]) is reported as 2.8 µM (≈ 4.06 µg/mL) and the MIC (Enterococcus faecalis) is reported as > 44 µM. The MIC (Staphylococcus aureus [3]) was 5.5 µM (≈ 7.97 µg/mL), the MIC (Staphylococcus aureus [4]) was > 44 µM and the MIC (Staphylococcus aureus [5]) was 1 µM (≈ 1.45 µg/mL). For the same molecule, the MIC (Staphylococcus aureus [6]) was 1 µM (≈ 1.45 µg/mL), the MIC (Enterococcus faecium) was > 44 µM and the MIC (Staphylococcus aureus [7]) was 0.6 µM (≈ 0.87 µg/mL). For the same molecule, the MIC (Streptococcus pneumoniae) was 0.7 µM (≈ 1.01 µg/mL), the Activity (Staphylococcus aureus [8]) was “Active” and the MIC (Staphylococcus aureus [9]) was > 44 µM. The MIC (Staphylococcus aureus [10]) was > 44 µM and the Activity (Staphylococcus aureus [11]) was “Active”.
`CCCCCCCCCCC(NC(=O)C(CCCCCCCCCC)NC(=O)C(CCCCNC(=O)C(CCCCN)NC(C)=O)NC(=O)C(CCCCN)NC(C)=O)C(N)=O` (centres undefined) (Ac-KK([Lys-Ac])[ξGly(decyl)][ξGly(decyl)]-NH2; configuration not given here) gave an MIC (Staphylococcus aureus [1]) of 3.75 µM (≈ 3.3 µg/mL), an MIC (Staphylococcus aureus [2]) of 7.5 µM (≈ 6.6 µg/mL) and an MIC (Enterococcus faecalis) of 0.9 µM (≈ 0.792 µg/mL). The MIC (Staphylococcus aureus [3]) was 5.6 µM (≈ 4.93 µg/mL), the MIC (Staphylococcus aureus [4]) was 2.8 µM (≈ 2.46 µg/mL) and the MIC (Escherichia coli) was > 30 µM. The MIC (Staphylococcus aureus [5]) was 2.8 µM (≈ 2.46 µg/mL), the MIC (Staphylococcus aureus [6]) was 7.5 µM (≈ 6.6 µg/mL) and the CC50 at 24 h [12] was > 15 µM. For the same molecule, the MIC (Enterococcus faecium) was 0.9 µM (≈ 0.792 µg/mL), the MIC (Pseudomonas aeruginosa) was 30 µM (≈ 26.4 µg/mL) and the MIC (Staphylococcus aureus [7]) was 0.9 µM (≈ 0.792 µg/mL). For the same molecule, the MIC (Klebsiella pneumoniae [13]) was > 30 µM, the MIC (Klebsiella pneumoniae [14]) was > 30 µM and the MIC (Streptococcus pneumoniae) was 2.8 µM (≈ 2.46 µg/mL). For the same molecule, the MIC (Klebsiella pneumoniae [15]) was > 30 µM, the CC50 at 24 h [16] was > 15 µM and the MIC (Staphylococcus aureus [9]) was 1.9 µM (≈ 1.67 µg/mL). The MIC (Staphylococcus aureus [10]) was 1.9 µM (≈ 1.67 µg/mL) and the MIC (Acinetobacter baumannii) was 30 µM (≈ 26.4 µg/mL).
With `CCCCCCCCCCC(NC(=O)C(CCCCNC(=O)C(CCCCN)NC(C)=O)NC(=O)C(CCCCN)NC(C)=O)C(N)=O` (centres undefined) the MIC (Staphylococcus aureus [1]) was > 30 µM, the MIC (Staphylococcus aureus [2]) was > 30 µM and the MIC (Enterococcus faecalis) was 30 µM (≈ 20.5 µg/mL). For the same molecule, the MIC (Staphylococcus aureus [3]) was > 30 µM, the MIC (Staphylococcus aureus [4]) was > 30 µM and the MIC (Escherichia coli) was > 30 µM. For the same molecule, the MIC (Staphylococcus aureus [5]) was > 30 µM, the MIC (Staphylococcus aureus [6]) was > 30 µM and the CC50 at 24 h [12] was > 15 µM. For the same molecule, the MIC (Enterococcus faecium) was > 30 µM, the MIC (Pseudomonas aeruginosa) was > 30 µM and the MIC (Staphylococcus aureus [7]) was > 30 µM. For the same molecule, the MIC (Klebsiella pneumoniae [13]) was > 30 µM, the MIC (Klebsiella pneumoniae [14]) was > 30 µM and the MIC (Streptococcus pneumoniae) was > 30 µM. For the same molecule, the MIC (Klebsiella pneumoniae [15]) was > 30 µM, the CC50 at 24 h [16] was > 15 µM and the MIC (Staphylococcus aureus [9]) was > 30 µM. For the same molecule, the MIC (Staphylococcus aureus [10]) was > 30 µM and the MIC (Acinetobacter baumannii) was > 30 µM.
In the case of `CCCCCCCCCCC(NC(=O)C(CCCCCCCCCC)NC(=O)C(CCCCNC(=O)C(N)CCCCN)NC(=O)C(N)CCCCN)C(N)=O` (centres undefined) (H-KK(Lys)[ξGly(decyl)][ξGly(decyl)]-NH2; configuration not given here), the MIC (Staphylococcus aureus [1]) is reported as 0.06 µM (≈ 0.0478 µg/mL), the MIC (Staphylococcus aureus [2]) is reported as 0.1 µM (≈ 0.0796 µg/mL) and the MIC (Enterococcus faecalis) is reported as 0.2 µM (≈ 0.159 µg/mL). The MIC (Staphylococcus aureus [3]) was 0.1 µM (≈ 0.0796 µg/mL), the MIC (Staphylococcus aureus [4]) was 0.2 µM (≈ 0.159 µg/mL) and the MIC (Escherichia coli) was 30 µM (≈ 23.9 µg/mL). The MIC (Staphylococcus aureus [5]) was 0.1 µM (≈ 0.0796 µg/mL), the MIC (Staphylococcus aureus [6]) was 0.1 µM (≈ 0.0796 µg/mL) and the CC50 at 24 h [12] was ≥ 15 µM. For the same molecule, the MIC (Enterococcus faecium) was 0.2 µM (≈ 0.159 µg/mL), the MIC (Pseudomonas aeruginosa) was 30 µM (≈ 23.9 µg/mL) and the MIC (Staphylococcus aureus [7]) was 0.1 µM (≈ 0.0796 µg/mL). The MIC (Klebsiella pneumoniae [13]) was > 30 µM, the MIC (Klebsiella pneumoniae [14]) was > 30 µM and the MIC (Streptococcus pneumoniae) was 0.2 µM (≈ 0.159 µg/mL). The MIC (Klebsiella pneumoniae [15]) was > 30 µM, the CC50 at 24 h [16] was > 15 µM and the MIC (Staphylococcus aureus [9]) was 0.1 µM (≈ 0.0796 µg/mL). The MIC (Staphylococcus aureus [10]) was 0.1 µM (≈ 0.0796 µg/mL) and the MIC (Acinetobacter baumannii) was > 30 µM.
